Results taken from PubChem BioAssay (NCI).
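These data come from cells grown in 96-well plates and exposed to compound for 48 hours at five concentrations. TGI is the concentration that stops growth completely.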

Columns and labels:
Assay in all cases: NCI tumour cell line growth inhibition, 48 h
[1] = tested on: EKVX NSCLC
[2] = tested on: NCI/ADR-RES ovarian
[3] = tested on: U251 CNS
[4] = tested on: OVCAR-4 ovarian
[5] = tested on: IGROV1 ovarian
[6] = tested on: KM12 colon
[7] = tested on: OVCAR-3 ovarian
[8] = tested on: CCRF-CEM leukemia
[9] = tested on: SNB-78 CNS
[10] = tested on: HOP-92 NSCLC
[11] = tested on: SN12C renal
[12] = tested on: MCF7 breast
[13] = tested on: SK-MEL-2 melanoma
[14] = tested on: HCC-2998 colon
[15] = tested on: LOX IMVI melanoma
[16] = tested on: NCI-H460 lung
[17] = tested on: SK-MEL-28 melanoma
[18] = tested on: NCI-H522 lung
[19] = tested on: CAKI-1 renal
[20] = tested on: M19-MEL melanoma
[21] = tested on: OVCAR-5 ovarian
[22] = tested on: SF-268 CNS
[23] = tested on: SF-539 CNS
[24] = tested on: HT29 colon
[25] = tested on: HOP-18 NSCLC
[26] = tested on: SNB-19 CNS
[27] = tested on: COLO 205 colon
[28] = tested on: XF 498 CNS
[29] = tested on: DLD-1 colon
[30] = tested on: NCI-H23 lung
[31] = tested on: HOP-62 NSCLC
[32] = tested on: HCT-116 colon
[33] = tested on: HL-60(TB) leukemia
[34] = tested on: A498 renal
[35] = tested on: HCT-15 colon
[36] = tested on: DMS 114 small cell lung
[37] = tested on: MOLT-4 leukemia
[38] = tested on: RXF 393 renal
[39] = tested on: OVCAR-8 ovarian
[40] = tested on: P388/ADR leukemia
[41] = tested on: NCI-H226 lung
[42] = tested on: SN12K1 renal
[43] = tested on: UACC-257 melanoma
[44] = tested on: A549 NSCLC
[45] = tested on: P388 leukemia
[46] = tested on: DMS 273 small cell lung
[47] = tested on: UO-31 renal
[48] = tested on: MALME-3M melanoma
[49] = tested on: KM20L2 colon
[50] = tested on: UACC-62 melanoma
[51] = tested on: RPMI-8226 leukemia
[52] = tested on: SF-295 CNS
[53] = tested on: SW-620 colon
[54] = tested on: SNB-75 CNS
[55] = tested on: K-562 leukemia
[56] = tested on: SK-OV-3 ovarian
[57] = tested on: SK-MEL-5 melanoma

SMILES: Cc1csc(NC(=NCCN2CCOCC2)Nc2nc(C)cs2)n1
- TGI [1]: > 100 µM
- TGI [2]: > 100 µM
- TGI [3]: > 100 µM
- TGI [4]: > 100 µM
- TGI [5]: > 100 µM
- TGI [6]: > 100 µM
- TGI [7]: > 100 µM
- TGI [8]: > 100 µM
- TGI [9]: > 100 µM
- TGI [10]: > 100 µM
- TGI [11]: > 100 µM
- TGI [12]: > 100 µM
- TGI [13]: > 100 µM
- TGI [14]: > 100 µM
- TGI [15]: > 100 µM
- TGI [16]: > 100 µM
- TGI [17]: > 100 µM
- TGI [18]: > 100 µM
- TGI [19]: > 100 µM
- TGI [20]: > 100 µM
- TGI [21]: > 100 µM
- TGI [22]: > 100 µM
- TGI [23]: > 100 µM
- TGI [24]: > 100 µM
- TGI [25]: > 100 µM
- TGI [26]: > 100 µM
- TGI [27]: > 100 µM
- TGI [28]: > 100 µM
- TGI [29]: > 100 µM
- TGI [30]: > 100 µM
- TGI [31]: > 100 µM
- TGI [32]: > 100 µM
- TGI [33]: > 100 µM
- TGI [34]: > 100 µM
- TGI [35]: > 100 µM
- TGI [36]: > 100 µM
- TGI [37]: > 100 µM
- TGI [38]: > 100 µM
- TGI [39]: > 100 µM
- TGI [40]: > 100 µM
- TGI [41]: > 100 µM
- TGI [42]: > 100 µM
- TGI [43]: > 100 µM
- TGI [44]: > 100 µM
- TGI [45]: > 31.6 µM
- TGI [46]: > 100 µM
- TGI [47]: > 100 µM
- TGI [48]: > 100 µM
- TGI [49]: > 100 µM
- TGI [50]: > 100 µM
- TGI [51]: > 100 µM
- TGI [52]: > 100 µM
- TGI [53]: > 100 µM
- TGI [54]: > 100 µM
- TGI [55]: > 100 µM
- TGI [56]: > 100 µM
- TGI [57]: > 100 µM

SMILES: O=C1C=CC(=O)c2c(Cl)ccc(O)c21
- TGI [1]: 43 µM
- TGI [2]: 42.1 µM
- TGI [3]: > 100 µM
- TGI [4]: 32.5 µM
- TGI [5]: 21 µM
- TGI [6]: > 100 µM
- TGI [7]: 29.1 µM
- TGI [8]: > 100 µM
- TGI [9]: 41.2 µM
- TGI [10]: 6.96 µM
- TGI [11]: 39 µM
- TGI [12]: 31.1 µM
- TGI [13]: 97.5 µM
- TGI [14]: > 100 µM
- TGI [15]: 37.2 µM
- TGI [16]: > 100 µM
- TGI [17]: 33 µM
- TGI [18]: 26.8 µM
- TGI [19]: 16.1 µM
- TGI [20]: 30 µM
- TGI [21]: > 89.3 µM
- TGI [22]: 33.4 µM
- TGI [23]: > 56.8 µM
- TGI [24]: 44.9 µM
- TGI [25]: 33.4 µM
- TGI [26]: > 100 µM
- TGI [27]: 25.8 µM
- TGI [28]: 32.7 µM
- TGI [29]: 27.6 µM
- TGI [30]: 17.1 µM
- TGI [31]: > 100 µM
- TGI [32]: 23.5 µM
- TGI [33]: 18.5 µM
- TGI [34]: > 100 µM
- TGI [35]: 39.1 µM
- TGI [36]: 33.6 µM
- TGI [37]: 23.2 µM
- TGI [38]: 29.7 µM
- TGI [39]: 50.2 µM
- TGI [40]: 1.96 µM
- TGI [41]: > 100 µM
- TGI [42]: > 55.2 µM
- TGI [43]: 29.8 µM
- TGI [44]: > 100 µM
- TGI [45]: 3.84 µM
- TGI [46]: 25.4 µM
- TGI [47]: > 100 µM
- TGI [48]: 32.7 µM
- TGI [49]: 18.5 µM
- TGI [50]: 30.9 µM
- TGI [51]: 23.4 µM
- TGI [52]: > 57 µM
- TGI [53]: 31.4 µM
- TGI [54]: > 63.4 µM
- TGI [55]: > 74 µM
- TGI [56]: > 100 µM
- TGI [57]: 33.1 µM
